In assay [1] the test system is pERK in MKN1 cells. Description: cells. Conditions: Homo sapiens, MKN-1, pERK inhibition, In-Cell Western; MKN1 or H358 cells (Table 24 does not say which); 0.5-1 hour incubation; read-out: IC50. The assay is classed as cell-based.
For assay [2], the target named is recombinant human SOS1 polypeptide (amino acids 560-1049) (Homo sapiens (Human), UniProt Q07889). The assay is described as follows: biochemical. The assay is classed as binding. The settings on record: HTRF displacement, Cy5 labelled tracer, Morrison equation for competitive binding; read-out: Ki, Inhibition of Labeled Tracer Binding to SOS1.
Sequence of recombinant human SOS1 polypeptide (amino acids 560-1049) (Q07889 560-1049): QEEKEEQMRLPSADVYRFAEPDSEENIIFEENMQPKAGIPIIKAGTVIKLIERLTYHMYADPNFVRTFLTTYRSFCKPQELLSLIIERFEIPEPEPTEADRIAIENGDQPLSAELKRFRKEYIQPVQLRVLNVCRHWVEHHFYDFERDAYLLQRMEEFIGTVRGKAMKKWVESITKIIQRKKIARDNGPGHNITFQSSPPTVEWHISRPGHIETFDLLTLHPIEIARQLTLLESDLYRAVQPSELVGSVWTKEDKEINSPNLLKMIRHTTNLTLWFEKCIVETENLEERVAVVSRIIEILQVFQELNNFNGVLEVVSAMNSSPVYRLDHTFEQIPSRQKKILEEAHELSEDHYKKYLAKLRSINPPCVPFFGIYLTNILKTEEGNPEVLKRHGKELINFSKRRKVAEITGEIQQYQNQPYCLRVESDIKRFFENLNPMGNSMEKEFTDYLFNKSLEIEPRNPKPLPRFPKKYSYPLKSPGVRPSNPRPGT
Assay [3] relates to pERK in NCI-H1435 cells (NF-1 mutant). The assay is described as follows: pERK inhibition in NF-1 mutant NCI-H1435 cells (Example F). The assay is classed as cell-based. The settings on record: NCI-H1435, 1 h, read-out: IC50, pERK inhibition.
Method: (§2) The formaldehyde was discarded from the plates and 150 μL of ice-cold methanol was added to permeabilize the cells for 10 minutes at −20° C. The methanol was discarded from each of the plates and any liquid remaining in the plate by tapping the plate against paper towels. […] The plates were incubated overnight at 4° C. on a shaker.
(§3) On Assay day 2, the primary antibody solution was removed. […] The secondary antibody solution as removed and each plate was washed with PBST 3× times. Any liquid remaining was discarded and the plate was imaged using the Licor Odyssey machine according to the manufacturer's instruction, using a set focus length at 3 mm and both 800 nm and 700 nm filters. The GAPDH normalized scan values for each well were divided by the average of vehicle wells to get the % of pERK inhibition. The IC50 values were then calculated with the Graph pad Prism software.
Assay [4] has as its system pERK in RL95-2 cells (SOS1 N233Y). Description: pERK inhibition in SOS1 N233Y mutant RL95-2 cells (Example E). Format: cell-based. The settings on record: Homo sapiens, RL95-2 cell line, 1 hour with compound. An excerpt:
(§1) Three cell lines harboring SOS1 N233Y activation mutations, LXF289 (DSMZ, Leibniz Institute, Germany) RL95-2 (ATCC CRL-1671); and OCI AML-5 (DSMZ, Leibniz Institute, Germany) were used in the studies.

In assay [5] the test system is pERK in LXF289 cells (SOS1 N233Y). Description: pERK inhibition in SOS1 N233Y mutant LXF289 cells (Example E). The assay is classed as cell-based. The settings on record: Homo sapiens, LXF-289, LXF289 cell line, 1 hour with compound.
Excerpt: as §1

Assay [6] relates to pERK in OCI AML-5 cells (SOS1 N233Y). The assay is described as follows: pERK inhibition in SOS1 N233Y mutant OCI AML-5 cells (Example E). Format: cell-based. Conditions: Homo sapiens, OCI AML-5 cell line, 1 hour with compound.
Excerpt: as §1

In assay [7] the test system is pERK in Kasuma-1 (Kasumi) cells (NF-1 mutant). Description: pERK inhibition in NF-1 mutant Kasumi cells (Example F). Conditions: 1 h, read-out: IC50, pERK inhibition. Format: cell-based.
Method: as §2, §3

With `Cc1c(C(F)F)cccc1[C@@H](C)Nc1nnc(C)c2ccc(N3CCNCC3)cc12` [Example 10-4, (R)-N-(1-(3-(difluoromethyl)-2-methylphenyl)ethyl)-4-methyl-7-(piperazin-1-yl)phthalazin-1-amine], the half-maximal inhibitory concentration (IC50) (as a rule, the point on the concentration scale where inhibition reaches its midpoint) was 14 nM in assay [1] and 33 nM in assay [3]. For the same compound, in assay [2], the Ki – broadly, the dissociation constant of the complex between target and ligand, obtained from inhibition or displacement – is 0.08 nM.

On to `Cc1c([C@@H](C)Nc2nnc(C)c3ccc(N4CCN(C(=O)C5CC5)CC4)cc23)cccc1C(F)(F)F` [Example 6-11, (R)-cyclopropyl(4-(1-methyl-4-((1-(2-methyl-3-(trifluoromethyl)phenyl)ethyl)amino)phthalazin-6-yl)piperazin-1-yl)methanone], for which the IC50 in assay [1] is 31 nM; in assay [4], 20 nM; in assay [5], 41 nM; in assay [6] it was 32 nM; in assay [7] it was 97 nM; in assay [3] it was 65 nM. Further, the Ki in assay [2] came out at 9.1 nM.

In the case of `CNC1CCN(c2ccc3c(C)nnc(N[C@H](C)c4cccc(C(F)(F)F)c4C)c3c2)CC1` [Example 10-7, (R)-4-methyl-N-(1-(2-methyl-3-(trifluoromethyl)phenyl)ethyl)-7-(4-(methylamino)piperidin-1-yl)phthalazin-1-amine], the IC50 in assay [1] was 22 nM; in assay [3], 87 nM. Further, in assay [2], the Ki was found to be 0.07 nM.

`Cc1c([C@@H](C)Nc2nnc(C)c3ccc(N4CCN(C(=O)C5COC5)CC4)cc23)cccc1C(F)(F)F` [Example 11-1, (R)-(4-(1-methyl-4-((1-(2-methyl-3-(trifluoromethyl)phenyl)ethyl)amino)phthalazin-6-yl)piperazin-1-yl)(oxetan-3-yl)methanone]: the 50% inhibitory concentration (IC50) in assay [1] was 10 nM; in assay [3], 6 nM. The Ki in assay [2] worked out at 0.01 nM.

Turning to `Cc1c([C@@H](C)Nc2nnc(C)c3ccc(OC4CNC4)cc23)cccc1C(F)(F)F` [Example 7-4, (R)-7-(azetidin-3-yloxy)-4-methyl-N-(1-(2-methyl-3-(trifluoromethyl)phenyl)ethyl)phthalazin-1-amine], the IC50 in assay [1] amounted to 14 nM; in assay [3], 83 nM. Besides, the Ki in assay [2] came out at 0.47 nM.

Turning to `Cc1c([C@@H](C)Nc2nnc(C)c3ccc(N4CCC(N(C)C)CC4)cc23)cccc1C(F)(F)F` [Example 10-8, (R)-7-(4-(dimethylamino)piperidin-1-yl)-4-methyl-N-(1-(2-methyl-3-(trifluoromethyl)phenyl)ethyl)phthalazin-1-amine], the IC50 was 34 nM in assay [1] and 94 nM in assay [3]. In assay [2], the Ki stood at 0.09 nM.

Consider `Cc1c([C@@H](C)Nc2nnc(C)c3ccc(N4CCC(C)(N)CC4)cc23)cccc1C(F)(F)F` [Example 10-9, (R)-7-(4-amino-4-methylpiperidin-1-yl)-4-methyl-N-(1-(2-methyl-3-(trifluoromethyl)phenyl)ethyl)phthalazin-1-amine], for which the IC50 in assay [1] was 54 nM; in assay [3] it was 152 nM. For the same compound, the Ki in assay [2] came to 0.05 nM.

Regarding `Cc1c([C@@H](C)Nc2nnc(C)c3ccc(N4CCN(C(=O)C5(C(F)(F)F)CC5)CC4)cc23)cccc1C(F)(F)F` [Example 11-3, (R)-(4-(1-methyl-4-((1-(2-methyl-3-(trifluoromethyl)phenyl)ethyl)amino)phthalazin-6-yl)piperazin-1-yl)(1-(trifluoromethyl)cyclopropyl)methanone], the IC50 in assay [1] worked out at 48 nM; in assay [3], 62 nM. The Ki in assay [2] is under 0.01 nM.

In the case of `Cc1c([C@@H](C)Nc2nnc(C)c3ccc(N4CCOC[C@@H]4C)cc23)cccc1C(F)(F)F` [Example 10-6, 4-methyl-N-((R)-1-(2-methyl-3-(trifluoromethyl)phenyl)ethyl)-7-((S)-3-methylmorpholino)phthalazin-1-amine], the results for the IC50 in assay [1] and in assay [3] were 21 nM and 75 nM, respectively. The inhibition constant (Ki) in assay [2] turned out to be 0.64 nM.

For the compound `Cc1c([C@@H](C)Nc2nnc(C)c3ccc(N4CCN(C(=O)[C@@H]5CCOC5)CC4)cc23)cccc1C(F)(F)F` [Example 11-4, (4-(1-methyl-4-(((R)-1-(2-methyl-3-(trifluoromethyl)phenyl)ethyl)amino)phthalazin-6-yl)piperazin-1-yl)((R)-tetrahydrofuran-3-yl)methanone], the IC50 in assay [1] is 25 nM; in assay [3] it was 19 nM. Also, in assay [2], the Ki was 0.01 nM.

With `Cc1c([C@@H](C)Nc2nnc(C)c3ccc(O[C@H]4CCNC4)cc23)cccc1C(F)(F)F` [Example 7-3, 4-methyl-N-((R)-1-(2-methyl-3-(trifluoromethyl)phenyl)ethyl)-7-(((S)-pyrrolidin-3-yl)oxy)phthalazin-1-amine], the half-maximal inhibitory concentration (IC50) in assay [1] was 28 nM; in assay [3] it was 55 nM. In addition, the Ki in assay [2] is 0.32 nM.

As for `CNCc1ccccc1-c1ccc([C@@H](C)Nc2nnc(C)c3ccc(N4CCOCC4)cc23)s1` [Example 6-3, (R)-4-methyl-N-(1-(5-(2-((methylamino)methyl)phenyl)thiophen-2-yl)ethyl)-7-morpholinophthalazin-1-amine], the IC50 came to 12 nM in assay [1] and 25 nM in assay [3]. Besides, in assay [2], the Ki turned out to be 0.02 nM.

Take `Cc1c([C@@H](C)Nc2nnc(C)c3ccc(N4CCn5nccc5C4)cc23)cccc1C(F)(F)F` [Example 6-10, (R)-7-(6,7-dihydropyrazolo[1,5-a]pyrazin-5(4H)-yl)-4-methyl-N-(1-(2-methyl-3-(trifluoromethyl)phenyl)ethyl)phthalazin-1-amine]: the IC50 in assay [1] came to 271 nM; in assay [4], 214 nM; in assay [5], 294 nM; in assay [6], 333 nM; in assay [7] it was 902 nM; in assay [3], 542 nM. Also, the Ki in assay [2] was under 0.01 nM.

Turning to `Cc1nnc(N[C@H](C)c2cc(N)cc(C(F)(F)F)c2)c2cc(N3CCOCC3)ccc12` [Example 6-5, (R)-N-(1-(3-amino-5-(trifluoromethyl)phenyl)ethyl)-4-methyl-7-morpholinophthalazin-1-amine], the IC50 amounted to 10 nM in assay [1] and 9 nM in assay [3]. The Ki in assay [2] came out at 0.12 nM.

As to `CNCc1c(F)cccc1-c1ccc([C@@H](C)Nc2nnc(C)c3ccc(N4CCOCC4)cc23)s1` [Example 6-6, (R)-N-(1-(5-(3-fluoro-2-((methylamino)methyl)phenyl)thiophen-2-yl)ethyl)-4-methyl-7-morpholinophthalazin-1-amine], the IC50 in assay [1] came out at 40 nM; in assay [3], 29 nM. Moreover, in assay [2], the Ki was determined as 0.11 nM.

On to `Cc1c([C@@H](C)Nc2nnc(C)c3ccc(N4CCN(c5cnn(C)c5)CC4)cc23)cccc1C(F)(F)F` [Example 10-10, (R)-4-methyl-7-(4-(1-methyl-1H-pyrazol-4-yl)piperazin-1-yl)-N-(1-(2-methyl-3-(trifluoromethyl)phenyl)ethyl)phthalazin-1-amine], for which the IC50 in assay [1] came to 17 nM; in assay [3], 15 nM. The Ki in assay [2] was 0.01 nM.

For the compound `Cc1nc(C)n2c1CN(c1ccc3c(C)nnc(N[C@H](C)c4cccc(C(F)(F)F)c4C)c3c1)CC2` [Example 10-11, (R)-7-(1,3-dimethyl-5,6-dihydroimidazo[1,5-a]pyrazin-7(8H)-yl)-4-methyl-N-(1-(2-methyl-3-(trifluoromethyl)phenyl)ethyl)phthalazin-1-amine], the figures for the half-inhibitory concentration (IC50) in assay [1] and in assay [3] were 22 nM and 63 nM, respectively. In addition, in assay [2], the inhibition constant (Ki) came out at 0.01 nM.

These data come from US11702418B2, “SOS1 inhibitors” (priority 2019, dated 2023).
